# Results reported in US5994087A, “Mammalian melanocortin receptors and uses” (Oregon Health Sciences University, priority 1995, dated 1999).
# What was measured:
# rat MC3-R = rat MC3-R (Rattus norvegicus, UniProt P32244); test: Intracellular cAMP production in recombinant MC3-R expressing human 293 cells; type: cell-based
# Protocol: This property of cells expressing melanocortin receptors was used to analyze expression of MC3-R in cells transfected with the expression vectors described herein as follows.
# Following hormone treatment, the cells were washed twice with phosphate buffered saline and intracellular cAMP extracted by lysing the cells with 1 ml of 60% ethanol.
# pigmentation = details: Ling et al. 1979; Slominski et al. 1992; cited from earlier work
# [1] = test system: central nervous system and renal afferent nerve; details: Gruber & Callahan 1989; Klein et al. 1985; Lin et al. 1987; cited from earlier work
# rat MC3-R, sequence (P32244 whole entry): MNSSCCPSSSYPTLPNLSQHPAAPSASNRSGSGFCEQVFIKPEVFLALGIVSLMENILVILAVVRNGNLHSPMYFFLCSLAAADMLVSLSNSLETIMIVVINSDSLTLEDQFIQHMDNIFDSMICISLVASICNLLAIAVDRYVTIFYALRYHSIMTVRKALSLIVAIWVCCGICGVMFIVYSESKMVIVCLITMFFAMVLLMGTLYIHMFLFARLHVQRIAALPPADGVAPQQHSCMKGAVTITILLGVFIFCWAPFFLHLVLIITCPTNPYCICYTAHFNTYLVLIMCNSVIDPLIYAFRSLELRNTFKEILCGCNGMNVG
compound,measurement,setting,value
"CSCC[C@H](NC(=O)[C@@H](NC(=O)[C@@H](N)Cc1ccc(O)cc1)C(C)C)C(=O)NCC(=O)N[C@@H](Cc1c[nH]cn1)C(=O)N[C@@H](Cc1ccccc1)C(=O)N[C@@H](CCCNC(=N)N)C(=O)N[C@@H](Cc1c[nH]c2ccccc12)C(=O)N[C@@H](CC(=O)O)C(=O)N[C@@H](CCCNC(=N)N)C(=O)N[C@@H](Cc1ccccc1)C(N)=O [γ-MSH, γ-melanocyte stimulating hormone]",potency rank among ligands (lowest EC50),rat MC3-R,most potent ligand and the one having the lowest EC50
same,ability to stimulate pigmentation,pigmentation,little or no ability to stimulate pigmentation
same,"pressor, cardioaccelerator and natriuretic actions",[1],"potent pressor, cardioaccelerator and natriuretic actions"
